For data set [1] the following is noted: mouse.
The target of data set [2] is caspase 3 (Homo sapiens, UniProt P42574). Kind of data set: biochemical.
The target of data set [3] is UCHL1 (Homo sapiens, UniProt P09936). Kind of data set: biochemical.
The target of data set [4] is DEN1 (Homo sapiens, UniProt Q96LD8). Kind of data set: biochemical.
In data set [5] the target is cathepsin K (Homo sapiens, UniProt P43235). The data set is described as follows: biochemical.
Data set [6] concerns the target USP2 (Homo sapiens, UniProt O75604). The data set is described as follows: biochemical.
In data set [7] the target is USP7 (Homo sapiens, UniProt Q93009). Kind of data set: biochemical.
Data set [8] deals with SARS-CoV infected Vero E6 cells. The format is cell-based.
Data set [9] shares this test system. The following applies: read-out: EC50 (SARS-CoV antiviral); cited from earlier work.
Data set [10] deals with USP20 (Homo sapiens, UniProt Q9Y2K6). Kind of data set: biochemical.

The text below walks through data of PMC3983375 (Journal of Medicinal Chemistry, 2014).

pEC50, pIC50: −log10 of the molar value.

Sequence of USP7 (Q93009 whole entry): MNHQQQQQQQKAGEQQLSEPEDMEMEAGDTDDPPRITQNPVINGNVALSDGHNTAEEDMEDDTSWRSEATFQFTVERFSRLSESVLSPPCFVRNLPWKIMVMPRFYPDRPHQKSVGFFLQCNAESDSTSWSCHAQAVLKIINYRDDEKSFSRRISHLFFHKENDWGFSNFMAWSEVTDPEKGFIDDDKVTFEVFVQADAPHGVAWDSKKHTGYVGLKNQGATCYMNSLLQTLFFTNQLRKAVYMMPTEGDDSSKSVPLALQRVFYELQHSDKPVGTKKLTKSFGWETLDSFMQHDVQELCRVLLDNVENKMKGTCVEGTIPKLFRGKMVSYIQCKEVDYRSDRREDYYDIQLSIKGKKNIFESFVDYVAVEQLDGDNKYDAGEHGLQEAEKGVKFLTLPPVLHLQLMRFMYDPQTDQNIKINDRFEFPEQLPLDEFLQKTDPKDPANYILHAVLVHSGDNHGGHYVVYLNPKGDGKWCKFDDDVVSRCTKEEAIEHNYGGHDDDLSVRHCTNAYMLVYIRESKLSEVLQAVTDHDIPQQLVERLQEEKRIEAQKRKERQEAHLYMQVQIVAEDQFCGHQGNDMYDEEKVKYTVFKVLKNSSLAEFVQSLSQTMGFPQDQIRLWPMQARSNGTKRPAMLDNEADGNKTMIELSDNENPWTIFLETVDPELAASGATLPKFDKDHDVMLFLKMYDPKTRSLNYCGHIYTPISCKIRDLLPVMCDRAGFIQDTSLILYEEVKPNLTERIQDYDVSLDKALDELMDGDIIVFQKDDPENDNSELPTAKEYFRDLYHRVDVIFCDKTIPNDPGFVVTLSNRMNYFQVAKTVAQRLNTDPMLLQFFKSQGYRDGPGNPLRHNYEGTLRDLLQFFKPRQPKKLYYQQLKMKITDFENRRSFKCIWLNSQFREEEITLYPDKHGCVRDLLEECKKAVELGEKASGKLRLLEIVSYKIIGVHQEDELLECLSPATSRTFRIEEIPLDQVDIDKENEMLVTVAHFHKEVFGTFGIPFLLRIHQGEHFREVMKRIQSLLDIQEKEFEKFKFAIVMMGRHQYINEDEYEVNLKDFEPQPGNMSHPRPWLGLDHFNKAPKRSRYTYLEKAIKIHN
Sequence of caspase 3 (P42574 29-175): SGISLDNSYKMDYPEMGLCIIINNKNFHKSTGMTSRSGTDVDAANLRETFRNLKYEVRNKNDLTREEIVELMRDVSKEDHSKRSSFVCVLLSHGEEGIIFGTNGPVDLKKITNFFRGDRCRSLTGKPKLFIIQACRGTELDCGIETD
Sequence of caspase 3 (P42574 176-277): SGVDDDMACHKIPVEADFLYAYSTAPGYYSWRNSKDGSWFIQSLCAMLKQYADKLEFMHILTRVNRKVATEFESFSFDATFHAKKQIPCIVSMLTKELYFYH
Sequence of UCHL1 (P09936 whole entry): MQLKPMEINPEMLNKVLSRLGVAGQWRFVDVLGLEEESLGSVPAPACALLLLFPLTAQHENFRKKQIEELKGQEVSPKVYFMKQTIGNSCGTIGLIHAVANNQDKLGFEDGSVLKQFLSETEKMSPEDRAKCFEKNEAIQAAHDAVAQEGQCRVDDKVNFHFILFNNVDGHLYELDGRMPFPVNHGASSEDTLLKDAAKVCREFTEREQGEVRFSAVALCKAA
Sequence of cathepsin K (P43235 115-329): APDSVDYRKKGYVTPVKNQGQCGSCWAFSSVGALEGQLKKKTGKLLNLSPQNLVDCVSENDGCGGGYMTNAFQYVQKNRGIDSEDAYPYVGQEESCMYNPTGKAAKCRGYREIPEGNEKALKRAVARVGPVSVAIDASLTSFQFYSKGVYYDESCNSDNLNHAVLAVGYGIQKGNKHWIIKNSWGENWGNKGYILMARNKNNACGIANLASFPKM
Sequence of USP2 (O75604 whole entry): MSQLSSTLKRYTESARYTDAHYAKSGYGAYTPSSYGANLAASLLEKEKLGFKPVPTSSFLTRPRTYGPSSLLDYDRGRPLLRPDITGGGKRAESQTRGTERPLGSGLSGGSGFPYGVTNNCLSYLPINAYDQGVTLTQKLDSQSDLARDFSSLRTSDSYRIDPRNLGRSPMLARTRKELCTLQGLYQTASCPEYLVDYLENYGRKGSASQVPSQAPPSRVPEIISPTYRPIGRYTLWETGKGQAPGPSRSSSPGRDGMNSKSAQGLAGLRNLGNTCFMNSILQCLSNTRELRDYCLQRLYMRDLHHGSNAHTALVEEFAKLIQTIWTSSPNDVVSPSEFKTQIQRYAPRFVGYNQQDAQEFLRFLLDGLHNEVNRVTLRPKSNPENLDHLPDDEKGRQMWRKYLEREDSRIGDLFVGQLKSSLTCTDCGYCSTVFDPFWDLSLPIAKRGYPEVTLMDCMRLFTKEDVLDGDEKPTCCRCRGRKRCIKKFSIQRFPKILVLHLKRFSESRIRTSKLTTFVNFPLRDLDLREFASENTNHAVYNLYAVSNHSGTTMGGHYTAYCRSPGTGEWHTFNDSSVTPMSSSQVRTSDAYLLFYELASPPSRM
Sequence of DEN1 (Q96LD8 whole entry): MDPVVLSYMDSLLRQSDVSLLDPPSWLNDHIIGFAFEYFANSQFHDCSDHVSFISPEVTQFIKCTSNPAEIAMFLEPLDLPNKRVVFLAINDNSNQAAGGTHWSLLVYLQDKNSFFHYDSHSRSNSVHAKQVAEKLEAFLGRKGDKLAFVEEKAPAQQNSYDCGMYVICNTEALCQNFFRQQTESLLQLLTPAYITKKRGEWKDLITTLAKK
Sequence of USP20 (Q9Y2K6 whole entry): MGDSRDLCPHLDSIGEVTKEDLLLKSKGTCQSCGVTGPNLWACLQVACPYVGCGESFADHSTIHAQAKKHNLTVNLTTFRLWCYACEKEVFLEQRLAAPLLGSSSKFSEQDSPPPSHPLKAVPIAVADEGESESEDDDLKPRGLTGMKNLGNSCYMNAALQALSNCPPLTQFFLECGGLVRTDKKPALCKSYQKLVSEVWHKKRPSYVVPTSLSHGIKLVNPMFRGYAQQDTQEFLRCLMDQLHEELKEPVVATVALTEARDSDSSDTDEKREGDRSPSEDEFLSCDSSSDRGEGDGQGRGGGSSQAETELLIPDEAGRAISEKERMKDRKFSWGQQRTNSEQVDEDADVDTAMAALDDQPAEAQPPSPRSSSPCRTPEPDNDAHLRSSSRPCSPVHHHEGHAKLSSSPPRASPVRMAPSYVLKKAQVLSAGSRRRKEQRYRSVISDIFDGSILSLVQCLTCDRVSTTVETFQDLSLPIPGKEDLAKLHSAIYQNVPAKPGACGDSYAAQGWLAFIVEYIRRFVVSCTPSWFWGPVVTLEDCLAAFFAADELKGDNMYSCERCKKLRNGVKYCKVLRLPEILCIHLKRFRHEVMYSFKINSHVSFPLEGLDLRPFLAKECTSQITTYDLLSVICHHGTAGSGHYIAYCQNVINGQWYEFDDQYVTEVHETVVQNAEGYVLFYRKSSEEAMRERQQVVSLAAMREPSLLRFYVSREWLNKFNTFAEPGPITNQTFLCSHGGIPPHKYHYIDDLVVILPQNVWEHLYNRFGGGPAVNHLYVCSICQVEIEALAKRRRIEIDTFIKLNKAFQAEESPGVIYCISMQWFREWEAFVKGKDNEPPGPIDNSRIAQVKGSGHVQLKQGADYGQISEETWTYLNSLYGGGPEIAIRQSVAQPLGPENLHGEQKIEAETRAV

In general, pIC50 refers to −log10 of the IC50, conventionally taken in molar units. Regarding `CC(=O)Nc1cccc(CNC(=O)C2CCN([C@H](C)c3cccc4ccccc34)CC2)c1` [3e, (R)-N-(3-Acetamidobenzyl)-1-(1-(naphthalen-1-yl)ethyl)piperidine-4-carboxamide], the “half-life longer than that of 15g” value in data set [1] is recorded as 4-5 fold. Further, the pIC50 in [2], in [3], in data set [4] and in [5] was less than 4.00 throughout.
In the case of `C[C@H](c1cccc2ccccc12)N1CCC(C(=O)NCc2ccc(F)cc2)CC1` [3j, (R)-N-(4-Fluorobenzyl)-1-(1-(naphthalen-1-yl)ethyl)piperidine-4-carboxamide], the pIC50 in data set [6], in data set [2], in data set [3], in data set [4], in data set [5] and in [7] was less than 4.00 each time.
Consider `C[C@H](c1cccc2ccccc12)N1CCC(C(=O)NCc2cccc(F)c2)CC1` [3k, (R)-N-(3-Fluorobenzyl)-1-(1-(naphthalen-1-yl)ethyl)piperidine-4-carboxamide], for which the negative-log IC50 (pIC50) in data set [6], in data set [2], in data set [3], in data set [4], in [5] and in data set [7] was less than 4.00 in each case. For the same molecule, the “improvement in antiviral activity compared to 15g” value in data set [8] is listed as 2 fold.
For the molecule `COc1cc(CNC(=O)C2CCN([C@H](C)c3cccc4ccccc34)CC2)ccn1` [5c, (R)-N-((2-Methoxypyridin-4-yl)methyl)-1-(1-(naphthalen-1-yl)ethyl)piperidine-4-carboxamide], in [1], the “half-life longer than that of 15g” value was 4-5 fold.
What is called pEC50 is the EC50 on a negative log10 scale, so that one unit is a factor of ten. Turning to `C[C@H](c1cccc2ccccc12)N1CCC(C(=O)NCc2ccc3c(c2)OCO3)CC1` [15g, reference compound], the pIC50 in data set [6], in data set [2], in data set [3], in data set [4], in data set [5] and in data set [7] was less than 4.00 throughout. In data set [10], this molecule had a negative-log IC50 (pIC50) of less than 4.00. The pEC50 in data set [9] is 5.04.
